US6111065A, “Peptide inhibitors of inflammation mediated by selectins” (Centocor, Inc., priority 1994, dated 2000)
No end group written: not given here.

Target: T1, GMP-140 (Homo sapiens, UniProt P16109)
T1 construct: from tissue; host or cells: human platelets (outdated platelet packs from a blood bank)
T1 sequence (P16109 42-830): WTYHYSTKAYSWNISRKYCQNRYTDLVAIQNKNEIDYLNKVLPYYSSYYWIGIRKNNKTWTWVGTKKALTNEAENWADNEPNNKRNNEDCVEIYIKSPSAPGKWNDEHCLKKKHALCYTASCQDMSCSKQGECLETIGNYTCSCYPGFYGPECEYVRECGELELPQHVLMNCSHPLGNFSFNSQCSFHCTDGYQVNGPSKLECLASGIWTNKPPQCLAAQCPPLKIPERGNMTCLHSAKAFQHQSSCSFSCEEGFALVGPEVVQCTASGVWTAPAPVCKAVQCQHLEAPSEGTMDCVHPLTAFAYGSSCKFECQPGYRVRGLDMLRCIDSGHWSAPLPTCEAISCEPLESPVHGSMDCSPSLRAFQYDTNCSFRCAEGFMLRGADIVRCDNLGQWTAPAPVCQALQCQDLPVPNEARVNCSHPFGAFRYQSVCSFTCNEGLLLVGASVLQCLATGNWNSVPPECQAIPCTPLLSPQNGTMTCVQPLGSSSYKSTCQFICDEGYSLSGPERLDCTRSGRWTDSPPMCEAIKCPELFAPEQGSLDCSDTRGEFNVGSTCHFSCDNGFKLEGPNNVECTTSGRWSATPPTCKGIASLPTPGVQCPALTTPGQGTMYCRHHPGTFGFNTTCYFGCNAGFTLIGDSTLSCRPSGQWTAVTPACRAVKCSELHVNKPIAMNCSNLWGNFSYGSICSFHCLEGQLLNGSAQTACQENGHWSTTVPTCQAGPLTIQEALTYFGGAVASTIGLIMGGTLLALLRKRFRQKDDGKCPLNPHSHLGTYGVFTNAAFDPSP
Experiment: Inhibition of neutrophil binding to GMP-140 coated wells
Format: cell-based
Conditions: read-out: PERCENT INHIBITION OF NEUTROPHIL BINDING
Text: Peptides can be screened for their ability to inhibit adhesion to cells, for example, neutrophil adhesion to purified GMP-140 immobilized on plastic wells, using the assay described by Geng, et al., Nature 343, 757-760 (1990).
Human neutrophils are isolated from heparinized whole blood by density gradient centrifugation on Mono-Poly resolving media, Flow Laboratories. Neutrophil suspensions are greater than 98% pure and greater than 95% viable by trypan blue exclusion. For adhesion assays, neutrophils are suspended at a concentration of 2×10^6 cells/ml in Hanks' balanced salt solution containing 1.26 mM Ca^2+ and 0.81 mM Mg^2+ (HBSS, Gibco) with 5 mg/ml human serum albumin (HBSS/HSA). Adhesion assays are conducted in triplicate in 96-well microtiter plates, Corning, incubated at 4° C. overnight with 50 microliters of various protein solutions.
GMP-140 is isolated from human platelet lysates by immunoaffinity chromatography on antibody S12-Sepharose™ and ion-exchange chromatography on a Mono-Q™ column (FLPC, Pharmacia Fine Chemicals), as follows.
Outdated human platelet packs (100 units) obtained from a blood bank and stored at 4° C. are pooled, adjusted to 5 mM EDTA at pH 7.5, centrifuged at 4,000 rpm for 30 min in 1 liter bottles, then washed three times with 1 liter of 0.1 M NaCl, 20 mM Tris pH 7.5 (TBS), 5 mM EDTA, 5 mM benzamidine.
The pellets are then resuspended in a minimum amount of wash buffer and made 1 mM in DIFP, then frozen in 50 ml screwtop tubes at -80° C. The frozen platelets are thawed and resuspended in 50 ml TBS, 5 mM benzamidine, 5 mM EDTA pH 7.5, 100 µM leupeptin. The suspension is frozen and thawed two times in a dry ice-acetone bath using a 600 ml lyophilizing flask, then homogenized in a glass/teflon mortar and pestle and made 1 mM in DIFP. The NaCl concentration is adjusted to 0.5 M with a stock solution of 4 M NaCl. […]
Bound GMP-140 is eluted from the S12 Affigel with 100 ml of 80% ethylene glycol, 1 mM MES pH 6.0, 0.01% Lubrol PX. Peak fractions with absorbance at 280 nm are pooled. […]

“RKEAEIWTDV-NH2 [RKEAEIWTDV-NH2, Arginyl-lysyl-glutamyl-alanyl-glutamyl-isoleucyl-tryptophyl-threonyl-aspartyl-valine amide]” gave an inhibition at 100 µM (peptide concentration 0.10 Mm) of 19%, an inhibition at 300 µM (peptide concentration 0.30 Mm) of 63% and an inhibition at 1000 µM (peptide concentration 1.0 Mm) of 67%.
